Laboratory results published in publication PMC9161374 (Science Translational Medicine, 2022).
Values joined by “and” are separate entries in the source; they are usually repeats but may differ in a detail not shown here. Equal values may be shown once.

Experiments:
[1] = test system: SARS-CoV-2 replicon system (pBAC-SARS-CoV-2-Replicon-Luc); experiment: microbe, parasite or virus in culture; type: cell-based; conditions: Severe acute respiratory syndrome coronavirus 2, HEK-293T, 60 h
SARS-CoV-2 (B.1) = experiment: Anti-SARS-CoV-2 activity in Vero E6 cells (viral yield by qRT-PCR); type: cell-based
[2] = test system: SARS-CoV-2 (Beta, B.1.351); experiment: microbe, parasite or virus in culture; type: cell-based; conditions: for % Inhibition: beta
[3] = test system: SARS-CoV-2 (Delta, B.1.617.2); experiment: microbe, parasite or virus in culture; type: cell-based; conditions: for % Inhibition: delta
[4] = test system: SARS-CoV-2 (B.1) in Huh7 cells; experiment: Anti-SARS-CoV-2 activity in Huh7 cells (viral yield by qRT-PCR); type: cell-based; conditions: B.1, MOI 0.05, 48 h
[5] = CCK-8 cell viability assay; type: cell-based, African green monkey; conditions: African green monkey; Vero E6 cells, 48 h, CCK8
Summary of the method: (§1)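 Vero E6 cells, 20,000/well, exposed to compound at 0–200 μM (0, 0.01, 0.1, 1, 5, 10, 50, 75, 100, 200 μM) for 48 h; viability read by CCK-8 and expressed as percentage versus drug concentration, mean ± SD.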

Vero E6 cells = experiment: CCK-8 cell viability assay; type: cell-based, African green monkey; conditions: individual replicate values, Fig.S4
Summary of the method: as §1

With N#C[C@@]1(c2ccc3c(N)ncnn23)O[C@H](COC(=O)c2ccccc2)[C@@H](O)[C@H]1O [ATV013] the EC50 ([1]; read-out: EC50 (Confidence 95%), replicon) was 497 nM, the EC90 ([1]; read-out: EC90 (Confidence 95%), replicon) was 1140 nM and the “% Inhibition” value (SARS-CoV-2 (B.1); 0.1 μM, replicates, sheet Fig.S3) was 0%. The “% Inhibition” value (SARS-CoV-2 (B.1); 0.5 μM, replicates, sheet Fig.S3) was 0%, the “% Inhibition” value (SARS-CoV-2 (B.1); 1 μM, replicates, sheet Fig.S3) was 54.9033% and the “% Inhibition” value (SARS-CoV-2 (B.1); 2 μM, replicates, sheet Fig.S3) was 83.4601%. For the same compound, the “% Inhibition” value (SARS-CoV-2 (B.1); 5 μM, replicates, sheet Fig.S3) was 91.8254%, the “% Inhibition” value (SARS-CoV-2 (B.1); 10 μM, replicates, sheet Fig.S3) was 91.2053% and the “% Inhibition” value (SARS-CoV-2 (B.1); B.1, 0.01 uM, Vero E6, replicates) was 0%. For the same compound, the “% Inhibition” value (SARS-CoV-2 (B.1); B.1, 0.1 uM, Vero E6, replicates) was 0%, the “% Inhibition” value (SARS-CoV-2 (B.1); B.1, 0.25 uM, Vero E6, replicates) was 0% and the “% Inhibition” value (SARS-CoV-2 (B.1); B.1, 0.5 uM, Vero E6, replicates) was 0%. For the same compound, the “% Inhibition” value (SARS-CoV-2 (B.1); B.1, 1 uM, Vero E6, replicates) was 0%, the “% Inhibition” value (SARS-CoV-2 (B.1); B.1, 5 uM, Vero E6, replicates, 5 µM) was 99.7536% and the “% Inhibition” value (SARS-CoV-2 (B.1); B.1, 10 uM, Vero E6, replicates, 10 µM) was 99.9918%. For the same compound, the “% Inhibition” value (SARS-CoV-2 (B.1); B.1, 50 uM, Vero E6, replicates, 50 µM) was 99.9922%, the inhibition at 0.1 µM (SARS-CoV-2 (B.1); Severe acute respiratory syndrome coronavirus 2, Vero C1008, 0.1 μM, replicates, sheet Fig.S3) was 0% and the inhibition at 0.5 µM (SARS-CoV-2 (B.1); Severe acute respiratory syndrome coronavirus 2, Vero C1008, 0.5 μM, replicates, sheet Fig.S3) was 0%. For the same compound, the inhibition at 1 µM (SARS-CoV-2 (B.1); Severe acute respiratory syndrome coronavirus 2, Vero C1008, 1 μM, replicates, sheet Fig.S3) was 62%, the inhibition at 2 µM (SARS-CoV-2 (B.1); Severe acute respiratory syndrome coronavirus 2, Vero C1008, 2 μM, replicates, sheet Fig.S3) was 83.8% and the inhibition at 5 µM (SARS-CoV-2 (B.1); Severe acute respiratory syndrome coronavirus 2, Vero C1008, 5 μM, replicates, sheet Fig.S3) was 93.6%. The inhibition at 10 µM (SARS-CoV-2 (B.1); Severe acute respiratory syndrome coronavirus 2, Vero C1008, 10 μM, replicates, sheet Fig.S3) was 93.5%, the inhibition at 0.01 µM (SARS-CoV-2 (B.1); Severe acute respiratory syndrome coronavirus 2, Vero C1008, B.1, 0.01 uM, Vero E6, replicates) was 0% and the inhibition at 0.1 µM (SARS-CoV-2 (B.1); Severe acute respiratory syndrome coronavirus 2, Vero C1008, B.1, 0.1 uM, Vero E6, replicates) was 0%. The inhibition at 0.25 µM (SARS-CoV-2 (B.1); Severe acute respiratory syndrome coronavirus 2, Vero C1008, B.1, 0.25 uM, Vero E6, replicates) was 0%, the inhibition at 0.5 µM (SARS-CoV-2 (B.1); Severe acute respiratory syndrome coronavirus 2, Vero C1008, B.1, 0.5 uM, Vero E6, replicates) was 0% and the inhibition at 1 µM (SARS-CoV-2 (B.1); Severe acute respiratory syndrome coronavirus 2, Vero C1008, B.1, 1 uM, Vero E6, replicates) was 0%. It also gave an inhibition at 5 µM (SARS-CoV-2 (B.1); Severe acute respiratory syndrome coronavirus 2, Vero C1008, B.1, 5 uM, Vero E6, replicates) of 99.5%, an inhibition at 10 µM (SARS-CoV-2 (B.1); Severe acute respiratory syndrome coronavirus 2, Vero C1008, B.1, 10 uM, Vero E6, replicates) of 100% and an inhibition at 50 µM (SARS-CoV-2 (B.1); Severe acute respiratory syndrome coronavirus 2, Vero C1008, B.1, 50 uM, Vero E6, replicates) of 100%. It also gave an EC90 (SARS-CoV-2 (B.1); Severe acute respiratory syndrome coronavirus 2, Vero C1008, read-out: EC90 (Confidence 95%)) of 2870 nM, an EC50 (SARS-CoV-2 (B.1); Severe acute respiratory syndrome coronavirus 2, Vero C1008, MOI 0.05, 48 h) of 2260 nM and an EC50 ([2]; Severe acute respiratory syndrome coronavirus 2, Vero C1008, 48 h, read-out: EC50 in Vero E6 cells, SARS-CoV-2 (Beta, B.1.351)) of 2430 nM. It also gave an inhibition at 0.01 µM ([2]; Severe acute respiratory syndrome coronavirus 2, Vero C1008, beta, 0.01 uM, Vero E6, replicates) of 0%, an inhibition at 0.1 µM ([2]; Severe acute respiratory syndrome coronavirus 2, Vero C1008, beta, 0.1 uM, Vero E6, replicates) of 0% and an inhibition at 0.25 µM ([2]; Severe acute respiratory syndrome coronavirus 2, Vero C1008, beta, 0.25 uM, Vero E6, replicates) of 0%. For the same compound, the inhibition at 0.5 µM ([2]; Severe acute respiratory syndrome coronavirus 2, Vero C1008, beta, 0.5 uM, Vero E6, replicates) was 0%, the inhibition at 1 µM ([2]; Severe acute respiratory syndrome coronavirus 2, Vero C1008, beta, 1 uM, Vero E6, replicates) was 0% and the inhibition at 2 µM ([2]; Severe acute respiratory syndrome coronavirus 2, Vero C1008, beta, 2 uM, Vero E6, replicates) was 23.7%. For the same compound, the inhibition at 5 µM ([2]; Severe acute respiratory syndrome coronavirus 2, Vero C1008, beta, 5 uM, Vero E6, replicates) was 99.7%, the inhibition at 10 µM ([2]; Severe acute respiratory syndrome coronavirus 2, Vero C1008, beta, 10 uM, Vero E6, replicates) was 99.9% and the inhibition at 50 µM ([2]; Severe acute respiratory syndrome coronavirus 2, Vero C1008, beta, 50 uM, Vero E6, replicates) was 99.9%. For the same compound, the EC90 ([2]; Severe acute respiratory syndrome coronavirus 2, Vero C1008, read-out: EC90 (Confidence 95%), Vero-E6, Beta B.1.351) was 3.09 µM, the “% Inhibition” value ([2]; 0.01 uM, Vero E6, replicates) was 0% and the “% Inhibition” value ([2]; 0.1 uM, Vero E6, replicates) was 0%. The “% Inhibition” value ([2]; 0.25 uM, Vero E6, replicates) was 0%, the “% Inhibition” value ([2]; 0.5 uM, Vero E6, replicates) was 0% and the “% Inhibition” value ([2]; 1 uM, Vero E6, replicates) was 0%. For the same compound, the “% Inhibition” value ([2]; 2 uM, Vero E6, replicates) was 12.3832%, the “% Inhibition” value ([2]; 5 uM, Vero E6, replicates) was 99.5222% and the “% Inhibition” value ([2]; 10 uM, Vero E6, replicates) was 99.9634%. For the same compound, the “% Inhibition” value ([2]; 50 uM, Vero E6, replicates) was 99.9455%, the EC50 ([3]; Severe acute respiratory syndrome coronavirus 2, Vero C1008, 48 h, read-out: EC50 in Vero E6 cells, SARS-CoV-2 (Delta, B.1.617.2)) was 965 nM and the inhibition at 0.01 µM ([3]; Severe acute respiratory syndrome coronavirus 2, Vero C1008, delta, 0.01 uM, Vero E6, replicates) was 0%. It also gave an inhibition at 0.1 µM ([3]; Severe acute respiratory syndrome coronavirus 2, Vero C1008, delta, 0.1 uM, Vero E6, replicates) of 0%, an inhibition at 0.25 µM ([3]; Severe acute respiratory syndrome coronavirus 2, Vero C1008, delta, 0.25 uM, Vero E6, replicates) of 0% and an inhibition at 1 µM ([3]; Severe acute respiratory syndrome coronavirus 2, Vero C1008, delta, 1 uM, Vero E6, replicates) of 50.4%. It also gave an inhibition at 2 µM ([3]; Severe acute respiratory syndrome coronavirus 2, Vero C1008, delta, 2 uM, Vero E6, replicates) of 93.4%, an inhibition at 5 µM ([3]; Severe acute respiratory syndrome coronavirus 2, Vero C1008, delta, 5 uM, Vero E6, replicates) of 96.1% and an inhibition at 10 µM ([3]; Severe acute respiratory syndrome coronavirus 2, Vero C1008, delta, 10 uM, Vero E6, replicates) of 99.7%. The inhibition at 50 µM ([3]; Severe acute respiratory syndrome coronavirus 2, Vero C1008, delta, 50 uM, Vero E6, replicates) was 100%, the EC90 ([3]; Severe acute respiratory syndrome coronavirus 2, Vero C1008, read-out: EC90 (Confidence 95%), Vero-E6, Delta B.1.617.2) was 1410 nM and the “% Inhibition” value ([3]; 0.01 uM, Vero E6, replicates) was 0%. For the same compound, the “% Inhibition” value ([3]; 0.1 uM, Vero E6, replicates) was 0%, the “% Inhibition” value ([3]; 0.25 uM, Vero E6, replicates) was 0% and the “% Inhibition” value ([3]; 0.5 uM, Vero E6, replicates) was 0.1843% and 0%. The “% Inhibition” value ([3]; 1 uM, Vero E6, replicates) was 60.4565%, the “% Inhibition” value ([3]; 2 uM, Vero E6, replicates) was 90.993% and the “% Inhibition” value ([3]; 5 uM, Vero E6, replicates) was 93.9334%. The “% Inhibition” value ([3]; 10 uM, Vero E6, replicates) was 98.4346%, the “% Inhibition” value ([3]; 50 uM, Vero E6, replicates) was 99.9058% and the EC50 ([4]; Severe acute respiratory syndrome coronavirus 2, Huh-7, read-out: EC50 (Confidence 95%) in Huh7 cells) was 964 nM. The EC90 ([4]; Severe acute respiratory syndrome coronavirus 2, Huh-7, read-out: EC90 (Confidence 95%) in Huh7 cells) was 1320 nM, the CC50 at 48 h [5] was over 50 µM and the “cell viability (% of control)” value (Vero E6 cells; 1 μM compound, 1 µM) was 66.6435 % of control and 71.881 % of control and 81.6609 % of control. For the same compound, the “cell viability (% of control)” value (Vero E6 cells; 2 μM compound, 2 µM) was 62.1939 % of control and 100.479 % of control and 98.8104 % of control, the “cell viability (% of control)” value (Vero E6 cells; 5 μM compound, 5 µM) was 79.1116 % of control and 101.73 % of control and 106.643 % of control and the “cell viability (% of control)” value (Vero E6 cells; 10 μM compound, 10 µM) was 79.4361 % of control and 86.4349 % of control and 92.6458 % of control. For the same compound, the “cell viability (% of control)” value (Vero E6 cells; 20 μM compound, 20 µM) was 76.9332 % of control and 94.4535 % of control and 115.728 % of control and the “cell viability (% of control)” value (Vero E6 cells; 50 μM compound, 50 µM) was 73.9991 % of control and 102.436 % of control and 88.29 % of control.
